According to patent US9445993B2, “Nanotechnology approach for inhalation therapies” (Rutgers, The State University of New Jersey, priority 2012, dated 2016):

Experiments:
[1] = test system: hydroxyproline content in the lungs; test: Hydroxyproline assay in lungs (Example 1); format: in vivo, mice; conditions: three weeks after instillation of 1.5 U/kg bleomycin
Experimental: […] Homogenized lung tissues were hydrolyzed in 12 N HCl at 120° C. for 3 h in pressure-tight vials. After this, 10 μl of samples were allocated to a 96 well plate and dried under vacuum. Oxidation buffer with chloramine T was added to each sample at room temperature for 5 min, and the samples were incubated in dimethylaminobenzaldehyde (DMAB) reagent for 90 min at 60° C. Samples were cooled and the absorbance at 560 nm was measured using an automated microplate plate reader. Six concentrations of hydroxyproline standard dilutions (from 0 to 1 μg/well) were used to plot a hydroxyproline standard curve.

[2] = test system: IPF initiated by the intratracheal instillation of bleomycin; test: Animal model of IPF and inhalation treatment starting day 15 (Example 2): body and lung weight, hydroxyproline, MRI, histology
Experimental: Healthy 6-8 weeks old SKH1-hr hairless mice of both genders (20-25 g) were obtained from Charles River Laboratories (Wilmington, Mass.). IPF was initiated by the intratracheal instillation of bleomycin at the dose of 1.5 U/kg. Changes in animal body and lung weight, hydroxyproline content in the lung tissue, and lung histology were used as hallmarks of the development of IPF in experimental animals.
Mice were treated separately with three different NLC-based DDS containing PGE2 and siRNA targeted to MMP3, CCL12 and HIF1A mRNA with appropriate controls by inhalation twice a week for three weeks starting 15 days after the bleomycin administration. […] A previously developed instillation unit consisting of a collision nebulizer connected to four-port, nose-only exposure chambers was used for inhalation delivery of NLC-PEG2-siRNA. NLC-based DDS was aerosolized at the flow rate of 2 L/min for ten min. Animal weight was measured daily throughout the study. In vivo imaging was performed twice per week in anesthetized mice during the whole course of the treatment. Optical Imaging (In-Vivo MS FX PRO, IVIS 100) and ultrasound (Vevo 2100 imaging system) was performed to monitor the body distribution of nanoparticles and disease progression, respectively. Animals were treated 6 times (2 times per week) starting from the day 15 after bleomycin instillation.
Expression of genes and proteins involved in the development and compensation of IPF was studied by quantitative RT-PCR (genes), Western blotting and Immunohistochemistry (proteins). In addition, body and organ weights as well as hydroxyproline content in the lungs was monitored. The distribution of osmium-, fluorescent- or tritium-labeled DDS was examined in mouse lungs, heart, liver, spleen, kidneys, and brain using transmission electron and confocal microscopes, optical imaging systems, and a radioactive counter, respectively. Adverse side effects of the treatment were determined by histopathological analysis, apoptosis and necrosis measurement in the healthy organs (heart, liver, spleen, kidneys, and brain).
Changes in animal body and lung weight, hydroxyproline content in the lung tissue and lung histology were used as hallmarks of the development of IPF in experimental animals after the instillation of 1.5 U/kg of bleomycin.

lung tissue = test: Histopathologic analysis of lungs (Example 1); format: in vivo, mice; conditions: 1.5 U/kg bleomycin instilled
Excerpt: At the end of the experiments, the animals were euthanized, the lungs were extracted and immediately fixed in 10% phosphate-buffered formalin. Samples were subsequently dehydrated and embedded in Paraplast®. Five-micrometer sections were cut and stained with hematoxylin-eosin as previously described and analyzed.

mice = test: Selection of bleomycin dose (animal death after intratracheal instillation); format: in vivo; conditions: observed 21 days
Experimental: (§1) Experiments were performed on healthy 6-8 weeks old SKH1-hr hairless mice (20-25 g) obtained from Charles River Laboratories (Wilmington, Mass.). Veterinary care followed the guidelines described in the guide for the care and use of laboratory animals (AAALAC) as well as the requirements established by the animal protocol approved by the Rutgers Institutional Animal Care and Use Committee (IACUC).
(§2) All mice were contained in micro-isolated cages under pathogen-free conditions at room temperature with humidity of 40±15% and light/dark cycle on 12 h per day in the animal maintenance facility. Mice were anesthetized via intraperitoneal instillation with 80 mg/kg ketamine and 10-12 mg/kg xylazine (Butler-Schine Animal Health Inc, Dublin, Ohio). Once anesthetized, the mouse was placed on the tilting rodent work stand (Hallowell EMC, Pittsfield, Mass.) in supine position and restrained in position by an incisor loop. The tongue was then extruded via rotation with a cotton tip applicator. The larynx was visualized using a modified 4 mm ear speculum attached to an operating head of an ophthalmoscope (Wellch Allyn, Skaneateles Falls, N.Y.). The modified speculum, acting in an inverted fashion as a laryngoscope blade, provided dorsal displacement of the tongue and magnification of the laryngeal opening as described.
Bleomycin was administered intratracheally in doses of 0.5, 1.0, 1.5, and 2.0 U/kg. Mice were treated with liposomal PGE2 by inhalation twice a week for three weeks starting with the second day after the bleomycin administration. […] Animal weight was measured daily throughout the study. After the three weeks treatment period, all mice were anesthetized with isoflurane and euthanized. The organs (lungs, heart, liver, kidney, spleen, and brain) were excised and used for further analysis.
In order to select an appropriate dose of bleomycin, four doses (0.5; 1.0; 1.5; 2.0 U/kg) were tested. […] The dose of 2.0 U/kg led to the death of 100% of animals within 21 days (FIG. 1A). The doses of 1.5 and 1.0 U/kg induced death of 50 and 25% of animals, respectively.

[3] = test system: lung fibrosis induced by intratracheal instillation of bleomycin; test: Animal model of IPF and inhalation treatment: body mass and mortality (Example 1); format: in vivo, mice; conditions: three weeks after instillation of 1.5 U/kg bleomycin
Experimental: as §1
as §2, with “The modified speculum, acting in an inverted fashion as a laryngoscope blade, provided dorsal displacement of the tongue and magnification of the laryngeal opening as described.” left out
Bleomycin was administered intratracheally in doses of 0.5, 1.0, 1.5, and 2.0 U/kg. […] Animal weight was measured daily throughout the study. […]

[4] = test system: 84 key genes involved in tissue remodeling; MMP3, CCL12, HIF1A; test: Gene and protein expression in lung tissues (Example 2); format: in vivo, mice; conditions: treatment with PGE2
Experimental: The profiles of the expression of 84 key genes involved in tissue remodeling during wound repair and development of fibrosis were studied in the lung tissues. […] Overexpression of some proteins was confirmed using immunostaining of lung tissue sections (FIG. 13A). In addition to genes included in the mouse fibrosis array, the expression of VEGF and hypoxia inducible factor 1 alpha (HIF1A) proteins was analyzed by immunohistochemistry (FIG. 13A) and Western blotting (FIG. 13B). Instillation of bleomycin led to the overexpression of HIF1A protein (FIGS. 13A and B).

[5] = 15 days after instillation of 1.5 U/kg bleomycin
[6] = PGE2 delivered by liposomes or NLC by inhalation, from day 15

Molecule | increase of hydroxyproline concentration in the lungs [1] | body weight of animals, % of its initial value [2, 5] | increase of hydroxyproline concentration in the lungs [2, 5] | lung weight [2, 5] | lung histology ([2]; bleomycin 1.5 U/kg) | lung histology (lung tissue) | animal death (mice; bleomycin 0.5 U/kg intratracheally) | death of animals (mice; bleomycin 1.0 U/kg intratracheally) | death of animals (mice; bleomycin 1.5 U/kg intratracheally) | death of animals within 21 days (mice; bleomycin 2.0 U/kg intratracheally) | body mass of animals, % of its initial value [3] | expression of MMP3, CCL12 and HIF1A versus control after treatment [4] | signs of IPF and lung tissue injury detected by MRI and histopathology ([2]; PGE2 alone delivered locally into the lungs) | hydroxyproline content in the lungs of treated animals versus healthy control ([2]; PGE2 by inhalation, from day 15) | body weight of experimental animals [2, 6] | lung weight [2, 6] | therapeutic effects of PGE2 delivered by liposomes versus NLC ([2]; inhalation)
bleomycin | 2.6 times | 75% | 2.6 fold | significantly increased | consolidation of the pulmonary architecture, with early fibrotic thickening of the alveolar walls, ablation of the alveolar space, and edema | consolidation of the pulmonary architecture, with early fibrotic thickening of the alveolar walls, ablation of the alveolar space, and edema | did not induce animal death | 25% | 50% | 100% | 75% | – | – | – | – | – | –
CCCCC[C@H](O)/C=C/[C@H]1[C@H](O)CC(=O)[C@@H]1C/C=C\CCCC(=O)O [PGE2, Prostaglandin E2] | – | – | – | – | – | – | – | – | – | – | – | still substantially higher when compared with control | substantially less pronounced | still significantly higher | decreased the body weight of experimental animals induced by bleomycin | had a little effect on the lung weight | comparable
